The values that follow come from PubChem BioAssay AID977614 (Broad Institute, 2014).

In general, AC50 refers to the midpoint of the concentration-response curve, whichever way the signal moves.

The source made the active and inactive calls.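 How the source made its calls: active means parasite count per well reduced by over 3 SD from the mean, with host cell number above 80% of untreated; inactive means the rest.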 Bounds are passed on as bounds.

The experiment has as its system L. donovani amastigotes in THP-1 macrophages, DAPI imaging, 72 h. Briefly: antileishmanial activity in infected macrophages – imaging, THP-1 host macrophages, single concentration (AID 977614).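 Further: signal is the parasite per host cell ratio from DAPI stained kinetoplasts and nuclei.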
For the compound `CC(=O)N1[C@H](CN(CC2CCC2)C(=O)CN(C)C)[C@@H](c2ccccc2)[C@@H]1CO`, the AC50 was > 10 µM (inactive). `C[C@@H]1CN([C@@H](C)CO)C(=O)CCCn2cc(nn2)CO[C@@H]1CN(C)C(=O)Oc1ccc2ccccc2c1`: the AC50 was > 10 µM (inactive).

With `O=C(c1ccncc1)N1C[C@@H]2[C@H](c3ccccc31)[C@@H](CO)N2Cc1ccccc1F`, the AC50 is > 10 µM (inactive). Consider `CNC[C@@H]1OCc2cn(nn2)CCCC(=O)N([C@@H](C)CO)C[C@@H]1C`, for which the AC50 was > 10 µM (inactive). For the compound `O=S(=O)(NC[C@H]1[C@@H](c2ccccc2)[C@H](CO)N1CC1CC1)c1ccccc1`, the AC50 was > 10 µM (inactive). Consider `C[C@@H]1CN([C@@H](C)CO)C(=O)CCCn2nncc2CO[C@H]1CN(C)C(=O)Nc1ccccc1C(F)(F)F`, for which the AC50 was > 10 µM (inactive). As for `C/C=C/c1ccc([C@H]2[C@@H](CO)N(CCC)[C@H]2CNC(=O)CN2CCOCC2)cc1`, the AC50 was > 10 µM (inactive). In the case of `C[C@@H]1CN([C@H](C)CO)C(=O)CCCn2nncc2CO[C@H]1CN(C)Cc1ccc2cccnc2c1`, the AC50 was > 10 µM (inactive).

In the case of `CCC(=O)N1[C@H](CO)[C@H](c2ccc(C#CC3(O)CCCC3)cc2)[C@@H]1CNC(C)=O`, the AC50 was > 10 µM (inactive). With `CCN(C[C@H]1[C@H](c2ccccc2)[C@@H](CO)N1C(C)=O)C(=O)NC1CCCC1`, the AC50 is > 10 µM (inactive). As to `O=C(CC(F)(F)F)N1C[C@H]2[C@@H](c3ccccc31)[C@H](CO)N2CC1CCOCC1`, the AC50 was > 10 µM (inactive).

In the case of `C[C@@H]1CN([C@H](C)CO)C(=O)CCCn2nncc2CO[C@@H]1CN(C)C(=O)c1cc(-c2ccccc2)on1`, the AC50 is > 10 µM (inactive).

`C[C@@H]1CN([C@@H](C)CO)C(=O)CCCn2cc(nn2)CO[C@H]1CN(C)C(=O)CCC(F)(F)F`: the AC50 was > 10 µM (inactive).

On to `C[C@@H]1CN([C@@H](C)CO)C(=O)CCCn2nncc2CO[C@@H]1CN(C)S(=O)(=O)c1ccc2c(c1)OCCCO2`, for which the AC50 is > 10 µM (inactive). With `COCC(=O)N1[C@@H]2CN(C(=O)Nc3ccccc3Cl)c3ccccc3[C@@H]2[C@@H]1CO`, the AC50 is > 10 µM (inactive). Take `O=C(Nc1ccc(F)cc1)N1C[C@H]2[C@@H](c3ccccc31)[C@H](CO)N2Cc1ccccc1Cl`: the AC50 is > 10 µM (inactive).

As for `O=C(c1ccccc1)N1C[C@H]2[C@@H](c3ccccc31)[C@@H](CO)N2Cc1ccccn1`, the AC50 is > 10 µM (inactive).

For the compound `O=C(Nc1ccccc1Cl)N1C[C@@H]2[C@H](c3ccccc31)[C@@H](CO)N2Cc1ccncc1`, the AC50 was > 10 µM (inactive). With `C[C@H]1CN([C@@H](C)CO)C(=O)CCCn2cc(nn2)CO[C@@H]1CN(C)C(=O)CCC(F)(F)F` the figure was > 10 µM (inactive). As to `C[C@H](CO)N1C[C@H](C)[C@@H](CN(C)Cc2ccccc2C(=O)O)OCc2cnnn2CCCC1=O`, the AC50 was > 10 µM (inactive). In the case of `O=C(CC(F)(F)F)N1C[C@@H]2[C@H](c3ccccc31)[C@@H](CO)N2CC1CCOCC1`, the AC50 was > 10 µM (inactive). With `CCCNC(=O)N1[C@@H]2CN(C(=O)Nc3cccc(Cl)c3)c3ccccc3[C@@H]2[C@@H]1CO` the figure was > 10 µM (inactive); with `C[C@@H]1CN([C@H](C)CO)C(=O)CCCn2nncc2CO[C@H]1CN(C)CC1CCCCC1`, > 10 µM (inactive).

Consider `O=C(NC[C@H]1[C@@H](c2ccccc2)[C@H](CO)N1C(=O)C1CCC1)NC1CCCC1`, for which the AC50 was > 10 µM (inactive). Regarding `CN(C[C@@H]1[C@H](c2ccccc2)[C@@H](CO)N1Cc1ccccn1)S(C)(=O)=O`, the AC50 was > 10 µM (inactive).

On to `COc1ccc(C(=O)N2C[C@H]3[C@@H](c4ccccc42)[C@H](CO)N3C(=O)Cc2ccccn2)cc1`, for which the AC50 is > 10 µM (inactive).

On to `COc1ccccc1NC(=O)N1C[C@@H]2[C@H](c3ccccc31)[C@@H](CO)N2CC1CCOCC1`, for which the AC50 was > 10 µM (inactive). As for `C/C=C/c1ccc([C@H]2[C@@H](CO)N[C@@H]2CN(CC(C)C)C(=O)c2ccccn2)cc1`, the figure is > 10 µM (inactive).

Turning to `COCCNC[C@H]1[C@H](c2ccccc2)[C@H](CO)N1c1nc(C)c(C)s1`, the AC50 was > 10 µM (inactive). `O=C(c1ccccc1F)N1C[C@@H]2[C@H](c3ccccc31)[C@H](CO)N2Cc1ccc2c(c1)OCO2`: the AC50 was > 10 µM (inactive). With `C[C@H](CO)N1C[C@H](C)[C@@H](CN(C)C(=O)Nc2ccc(-c3cccs3)cc2)OCc2cnnn2CCCC1=O` the figure was > 10 µM (inactive).

Consider `O=C(Cc1cccnc1)N1[C@H](CO)[C@H](c2ccccc2)[C@@H]1CNCC1CCC1`, for which the AC50 is > 10 µM (inactive). For the compound `CCC(=O)N1[C@@H](CO)[C@@H]2c3ccccc3N(C(=O)Nc3ccc(Cl)cc3)C[C@@H]21`, the AC50 is > 10 µM (inactive). With `Cc1noc(C)c1S(=O)(=O)N(C)C[C@@H]1OCc2cnnn2CCCC(=O)N([C@H](C)CO)C[C@@H]1C`, the AC50 was > 10 µM (inactive). As to `COc1ccc(NC(=O)N(C)C[C@@H]2OCc3cnnn3CCCC(=O)N([C@@H](C)CO)C[C@@H]2C)c(OC)c1`, the AC50 is > 10 µM (inactive). On to `CN1[C@@H]2CN(C(=O)C3CCCCC3)c3ccccc3[C@@H]2[C@@H]1CO`, for which the AC50 is > 10 µM (inactive).

On to `CC(=O)N(Cc1cccc(F)c1)C[C@H]1[C@@H](c2ccccc2)[C@@H](CO)N1C(C)=O`, for which the AC50 was > 10 µM (inactive). With `C[C@@H]1CN([C@@H](C)CO)C(=O)CCCn2cc(nn2)CO[C@H]1CN(C)C(=O)c1ccc(N2CCN(C)CC2)cc1` the figure was > 10 µM (inactive); with `COc1ccc(C(=O)N2C[C@@H]3[C@H](c4ccccc42)[C@H](CO)N3C(=O)NC(C)C)cc1`, > 10 µM (inactive); with `CCC(=O)N1[C@H](CO)[C@H](c2ccc(C3=CCCC3)cc2)[C@@H]1CNC1CCCCC1`, > 10 µM (inactive).

With `CCCC(=O)N1C[C@@H]2[C@H](c3ccccc31)[C@H](CO)N2Cc1cocn1`, the AC50 is > 10 µM (inactive). On to `CC(C)NC(=O)N1[C@@H]2CN(C)c3ccccc3[C@@H]2[C@@H]1CO`, for which the AC50 is > 10 µM (inactive).

Consider `C[C@H](CO)N1C[C@H](C)[C@@H](CN(C)Cc2ccc(C(=O)Nc3ccccc3N)cc2)OCc2cnnn2CCCC1=O`, for which the AC50 is > 10 µM (inactive). In the case of `CN(C[C@@H]1[C@H](c2ccccc2)[C@H](CO)N1Cc1ccccn1)S(C)(=O)=O`, the AC50 is > 10 µM (inactive).

For the compound `COCC(=O)N(C[C@@H]1[C@@H](c2ccccc2)[C@H](CO)N1C(=O)NC(C)C)C(C)C`, the AC50 is > 10 µM (inactive). In the case of `O=C(C1CC1)N1C[C@@H]2[C@H](c3ccccc31)[C@@H](CO)N2C(=O)c1ccccc1`, the AC50 was > 10 µM (inactive). Take `O=C(CC(F)(F)F)N1C[C@@H]2[C@H](c3ccccc31)[C@H](CO)N2C(=O)c1ccncc1`: the AC50 is > 10 µM (inactive). In the case of `COc1cccc(C(=O)N2C[C@H]3[C@@H](c4ccccc42)[C@@H](CO)N3C(=O)c2cccc(F)c2)c1`, the AC50 is > 10 µM (inactive).

For `C[C@H](CO)N1C[C@H](C)[C@H](CN(C)Cc2ccccc2)OCc2cn(nn2)CCCC1=O`, the AC50 is > 10 µM (inactive). In the case of `CC(=O)N1[C@@H](CO)[C@H](c2ccccc2)[C@@H]1CN(CC1CCC1)C(=O)CN(C)C`, the AC50 was > 10 µM (inactive).

As to `C/C=C/c1ccc([C@@H]2[C@H](CO)N[C@H]2CNS(=O)(=O)c2ccccc2)cc1`, the AC50 was > 10 µM (inactive). Take `O=C(Nc1cccc(Cl)c1)N1C[C@H]2[C@@H](c3ccccc31)[C@@H](CO)N2Cc1cccnc1`: the AC50 is > 10 µM (inactive). On to `COCC(=O)N1C[C@@H]2[C@H](c3ccccc31)[C@H](CO)N2C(=O)c1ccccc1F`, for which the AC50 is > 10 µM (inactive). Take `O=C(C1CCC1)N1C[C@@H]2[C@H](c3ccccc31)[C@H](CO)N2Cc1ccccc1`: the AC50 was > 10 µM (inactive). Turning to `C[C@@H]1CN([C@H](C)CO)C(=O)CCCn2nncc2CO[C@@H]1CN(C)C(=O)Oc1cccc2ccccc12`, the AC50 is > 10 µM (inactive).

In the case of `CC(=O)N1[C@@H](CO)[C@H](c2ccccc2)[C@@H]1CN(CC(C)C)C(=O)c1ccccn1`, the AC50 is > 10 µM (inactive).

`COc1ccccc1C(=O)N1C[C@@H]2[C@H](c3ccccc31)[C@H](CO)N2CC1CCCC1`: the AC50 was > 10 µM (inactive). For `CCC(=O)N1[C@H](CO)[C@H]2c3ccccc3N(C(=O)c3cnccn3)C[C@H]21`, the AC50 was > 10 µM (inactive). As for `CCN(C[C@@H]1[C@H](c2ccccc2)[C@@H](CO)N1C(=O)COC)S(C)(=O)=O`, the figure is > 10 µM (inactive).

`C[C@H](CO)N1C[C@H](C)[C@H](CN(C)C(=O)NC2CCCCC2)OCc2cn(nn2)CCCC1=O`: the AC50 is > 10 µM (inactive).

Turning to `CN(C[C@@H]1[C@@H](c2ccccc2)[C@@H](CO)N1Cc1ccccn1)S(C)(=O)=O`, the AC50 is > 10 µM (inactive). Take `C[C@H](CO)N1C[C@H](C)[C@@H](CN(C)C(=O)Nc2ccccc2C(F)(F)F)OCc2cnnn2CCCC1=O`: the AC50 was > 10 µM (inactive). With `CCN(C[C@H]1N[C@H](CO)[C@H]1c1ccccc1)C(=O)c1ccncc1` the figure was > 10 µM (inactive). With `Cc1noc(C)c1S(=O)(=O)N(C)C[C@H]1OCc2cn(nn2)CCCC(=O)N([C@@H](C)CO)C[C@@H]1C`, the AC50 was > 10 µM (inactive). Consider `O=C(C1CCC1)N1C[C@@H]2[C@H](c3ccccc31)[C@H](CO)N2C(=O)Nc1cccc(F)c1`, for which the AC50 is > 10 µM (inactive). As for `O=C(CC(F)(F)F)N1C[C@@H]2[C@H](c3ccccc31)[C@@H](CO)N2Cc1cccnc1`, the figure is > 10 µM (inactive). On to `C[C@H](CO)N1C[C@H](C)[C@@H](CN(C)CC2CCCCC2)OCc2cnnn2CCCC1=O`, for which the AC50 was > 10 µM (inactive). As for `C[C@H](CO)N1C[C@H](C)[C@@H](CN(C)Cc2ccccc2)OCc2cn(nn2)CCCC1=O`, the AC50 was > 10 µM (inactive).

`Cc1noc(C)c1NC(=O)N(C)C[C@@H]1OCc2cnnn2CCCC(=O)N([C@H](C)CO)C[C@H]1C`: the AC50 is > 10 µM (inactive). With `COc1cccc(NC(=O)N2[C@@H](CO)[C@H](c3ccccc3)[C@@H]2CNCC(C)C)c1` the figure was > 10 µM (inactive).
